Like-named read-outs stand apart in the source and are kept apart here.
Legend:
[1] = test system: hepatotoxic effects of TUDCA; assay: hepatoprotective activity against bile acid hepatotoxicity on co-administration; assay type: in vivo; conditions: 0.8 µmol/min/100g
Description: Normal values of alkaline phosphatase (ALP) and biliary lactate dehydrogenase (LDH) as well as of bile flow and calcium secretion are thereby obtained.

[2] = in vivo
Description: (§1) GUDCA is well absorbed by the intestine through a double mechanism, i.e. active and passive, transported to the liver by the portal system and uptaken. It passes rapidly through the liver without being metabolized and is then secreted in the bile with high transport rate and efficiency.

[3] = critical micellar concentration (detergent capacity); assay type: physicochemical
uptake by the liver = assay type: in vivo
Description: as §1, with “efficiency. UDCA is absorbed only through a passive mechanism and is uptaken by liver at 50% (GUDCA at 80%).” for “efficiency.”

| critical micellar concentration [3] | logP (physchem) | hepatic extraction ratio (uptake by the liver; in vivo) | pKa (pKa) | SMILES | prevention of hepatotoxic effects ([1]; administered with TUDCA at the same dose) | alkaline phosphatase (ALP) and biliary lactate dehydrogenase (LDH) ([1]; for GUDCA also bile flow and calcium secretion normal) | Fa [2] | pH values of the intestine contents at which absorbed [2] | hepatic extraction ratio (uptake by the liver; liver, read-out: uptaken by liver) |
| --- | --- | --- | --- | --- | --- | --- | --- | --- | --- |
| 12 µM | 2 | 0.8 |  | C[C@H](CCC(=O)NCC(=O)O)[C@H]1CC[C@H]2[C@@H]3[C@@H](O)C[C@@H]4C[C@H](O)CC[C@]4(C)[C@H]3CC[C@]12C [GUDCA, glycoursodeoxycholic acid] | can prevent the hepatotoxic effects | Normal values | 100% |  |  |
|  |  |  | ~1 | C[C@H](CCC(=O)NCCS(=O)(=O)O)[C@H]1CC[C@H]2[C@@H]3[C@@H](O)C[C@@H]4C[C@H](O)CC[C@]4(C)[C@H]3CC[C@]12C [TUDCA, tauroursodeoxycholic acid] |  |  |  |  |  |
|  |  |  |  | C[C@H](CCC(=O)O)[C@H]1CC[C@H]2[C@@H]3[C@@H](O)C[C@@H]4C[C@H](O)CC[C@]4(C)[C@H]3CC[C@]12C [UDCA, ursodeoxycholic acid] |  |  | 50% | 8.5 | 0.5 |

— patent EP0583566A2, “Process for the preparation of glycine-conjugated bile acids and relative pharmaceutical compositions useful for treating hepatic insufficiency” (ERREGIERRE INDUSTRIA CHIMICA Spa, priority 1992, dated 1994)
